Laboratory results: article PMC9745799, “Polymyxin Stereochemistry and Its Role in Antibacterial Activity and Outer Membrane Disruption” (ACS Infectious Diseases, 2022)
≈ marks a conversion by molar mass, not a printed value. Positions of bridges follow the written chain, without caps; N, C: chain ends. Non-standard residues stand in square brackets, D forms with d. Residues, ends and D or L forms follow the SMILES beside them. *: point of attachment. dDab = NCC[C@@H](N)C(=O)O; Heptanoyl = CCCCCCC(=O)*

Key:
Assay type in all cases: cell-based
[1] = test system: E. coli BW25113; conditions: E. coli BW25113; CLSI microbroth dilution, CAMHB, 18 h, 37 °C, triplicate
Description: (§1) MICs of compounds were determined following CLSI guidelines using the microbroth dilution method in polypropylene plates. Selected Gram-negative bacterial strains (see Table S2 for strain sources) were taken from glycerol stocks and grown overnight on blood agar. Individual colonies were selected and grown in Tryptic Soy Broth (TSB) to an OD600 of 0.5. Compounds were diluted in Mueller Hinton Broth (MHB) supplemented with Mg^2+ and Ca^2+ at final concentrations of 12 and 20 mg/L, respectively (CAMHB). 50 μL was used for each well, and compounds were assessed in triplicates. Bacterial culture was diluted in CAMHB to 10^6 CFU/mL, yielding 5 × 10^5 CFU/mL upon addition of 50 μL of culture to 50 μL of compound solution. Positive and negative (sterility) controls were present on each plate. Plates were sealed with a semipermeable membrane and incubated for 22 h (A. baumannii) or 18 h (other strains) under shaking at 37 °C.

[2] = test system: E. coli JW3596 (ΔwaaC); conditions: truncated LPS, CLSI microbroth dilution, CAMHB, 18 h, 37 °C, triplicate
Description: as §1

[3] = test system: E. coli mcr-1; conditions: CLSI microbroth dilution, CAMHB, 18 h, 37 °C, triplicate
Description: as §1

[4] = test system: K. pneumoniae ATCC 13883; conditions: K. pneumoniae ATCC 13883
Description: as §1

[5] = test system: P. aeruginosa 2018-007; conditions: P. aeruginosa 2018-007; CLSI microbroth dilution, CAMHB, 18 h, 37 °C, triplicate
Description: as §1

[6] = test system: P. aeruginosa ATCC 10145; conditions: P. aeruginosa ATCC 10145
Description: as §1

[7] = CLSI microbroth dilution, CAMHB, 18 h, 37 °C, triplicate

Q: `CCCCCCC(=O)N[C@H](CCN)C(=O)N[C@@H](C(=O)N[C@H](CCN)C(=O)N[C@@H]1CCNC(=O)[C@@H]([C@H](C)O)NC(=O)[C@@H](CCN)NC(=O)[C@@H](CCN)NC(=O)[C@@H](CC(C)C)NC(=O)[C@H](Cc2ccccc2)NC(=O)[C@@H](CCN)NC1=O)[C@H](C)O` [ent-PmxB4] (Heptanoyl-[dDab][dT][dDab][dDab][dDab]F[dL][dDab][dDab][dT]; lactam 4-C) was tested. Which MIC [1] did it give?
A: The MIC was greater than 128 mg/L.

Q: And the MIC [2]?
A: The MIC was 128 mg/L (≈ 109 µM).

Q: What about the MIC [3] of the same molecule?
A: Its MIC is 128 mg/L (≈ 109 µM).

Q: And the MIC in presence of PMBN ([4]; + PMBN (8 ug/mL))?
A: The MIC in presence of PMBN was greater than 128 mg/L.

Q: And the MIC in presence of SPR741 ([4]; + SPR741 (8 ug/mL))?
A: The MIC in presence of SPR741 was greater than 128 mg/L.

Q: What about the MIC [4, 7] of the same molecule?
A: Its MIC is greater than 128 mg/L.

Q: What about the MIC [5] of the same molecule?
A: The MIC was greater than 128 mg/L.

Q: What about the MIC in presence of PMBN ([6]; + PMBN (8 ug/mL)) of the same molecule?
A: The MIC in presence of PMBN was greater than 128 mg/L.

Q: What about the MIC in presence of SPR741 ([6]; + SPR741 (8 ug/mL)) of the same molecule?
A: Its MIC in presence of SPR741 is greater than 128 mg/L.

Q: What about the MIC [6, 7] of the same molecule?
A: Its MIC is greater than 128 mg/L.
